According to patent publication US9376700B2, “Methods of modifying N-termini of a peptide or protein using transferases” (The Trustees of the University of Pennsylvania, priority 2012, dated 2016):

Columns and labels:
Format in all cases: biochemical
[1] = biological target: T1, E. coli aminoacyl transferase (AaT) (Escherichia coli, UniProt P0A8P1); experiment: LysAlaAcm ligation assay: AaT-catalyzed transfer from aminoacyl adenosine donor to LysAlaAcm, HPLC at 325 nm; parameters: made in house; host or cells: E. coli BL21-Gold (DE3), plasmid pEG6, Ni-NTA purified; details: for Transfer to LysAlaAcm by AaT (in words): reactions analyzed after 4 h; for Ligated Product Yield (%): 4 h
Experimental: Each ligation reaction, 125 μL total volume, contained the following reagents: aminoacyl adenosine donor (1 mM), recombinant His10-tagged E. coli aminoacyl transferase (2.26 μM), and LysAlaAcm (100 μM) in the AaT Ligation Buffer (50 mM HEPES pH 8.0, 150 mm KCl, 10 mM MgCl2). The reaction mixtures were incubated at 37° C. for four hours and quenched with 1% acetic acid. The proteins were extracted from the reactions via acetone precipitation. The reactions were precipitated using 4× reaction volume of acetone and cooled at −20° C. for 1 h. Next, the reactions were centrifuged at 13,200 rpm at 4° C. for 20 min to separate the reaction from precipitated protein. The supernatant was transferred to fresh 1.5 mL centrifuge tubes and allowed for acetone evaporation overnight at room temperature. After acetone evaporation, the supernatant was dried in a Speedvac (Savant, Thermo Scientific, Fisher Inc.) for 30 min to remove residual acetone. The resulting reaction volume was dissolved up to 1.2 mL using Milli-Q water and analyzed by HPLC (gradient below) to determine ligation yield by integration of separated peak intensities monitored at 325 nm. Collected HPLC fractions were characterized through MALDI MS analysis. […] Reactions using Phe-pdCpA as donor were carried out in an identical fashion (Ellman, et al., 1991, Methods Enzymol. 202:301-336).
All HPLC analyses of LysAlaAcm ligations were monitored on an Agilent HPLC using a Waters C18 column (Milford, Mass.).
All HPLC analyses of LysAlaAcm ligations were monitored as described elsewhere herein (Gradient 1).
(§1) The extent of transfer was evaluated by HPLC analysis of reactions with adenosyl donor, AaT or BpT, and an aminocoumarin-labeled reporter peptide (for AaT, LysAlaAcm was used as previously described by Tirrell and co-workers; for BpT, AspAlaAcm was used in an analogous fashion) (Connor et al., 2008, ChemBioChem 9:366-369). Monitoring LysAlaAcm or AspAlaAcm acylation in crude reaction mixtures using absorbance at 325 nm conveniently eliminates background due to other proteins and nucleic acids, although some non-natural amino acids such as naphthylalanine (Nap) and methoxycoumarinylalanine (Mcm) also absorb in this range.
To evaluate substrate scope, reactions were analyzed after 4 h, when transfer should be complete for the fully enzymatic reaction with Phe tRNA synthetase (Connor et al., 2008, ChemBioChem 9:366-369).

V. vulnificus BpT = experiment: AspAlaAcm ligation assay: BpT-catalyzed transfer from adenosyl donor to AspAlaAcm; details: single addition of donor, 100 μM AspAlaAcm, 2.26 μM BpT, standard BpT-catalyzed transfer conditions
Experimental: Ligation test reactions with V. vulnificus Bpt were conducted in a manner identical to the AaT LysAlaAcm ligation assay with the following exceptions, 2.26 μM BpT was used rather than 2.26 μM AaT, 100 μM AspAlaAcm was used rather than 100 μM LysAlaAcm, and BpT Ligation Buffer (50 mM HEPES, pH 8, 150 mM KO, 10 mM MgCl2) was used rather than AaT Ligation Buffer.
as §1

[2] = biological target: T1, E. coli aminoacyl transferase (AaT); experiment: A/AMP/ATP/pdCpA inhibition studies of ligation with Phe donor 4a; parameters: made in house; host or cells: E. coli BL21-Gold (DE3), plasmid pEG6, Ni-NTA purified; details: tested at 1 mM, 2.5 mM and 5 mM with Phe donor 4a
Experimental: Each ligation reaction was performed as described elsewhere herein.
To better understand limitations on the yield from AaT reactions, the possibilities of inhibition by hydrolyzed substrate or aminoacylated product were assessed. Since the acyl adenosine donor substrate is not regenerated during the reaction (unlike the aaRS/tRNA/AaT reaction), it was hypothesized that the adenosine byproduct might inhibit further acylation by binding to AaT. To investigate this possibility, adenosine was added to the reaction at varying concentrations and monitored the reaction timecourse by fluorescence spectroscopy and by HPLC.

[3] = single addition of 1 mM donor, 100 μM LysAlaAcm, 2.26 μM AaT, 37° C., no additive

T1 sequence (P0A8P1 whole entry): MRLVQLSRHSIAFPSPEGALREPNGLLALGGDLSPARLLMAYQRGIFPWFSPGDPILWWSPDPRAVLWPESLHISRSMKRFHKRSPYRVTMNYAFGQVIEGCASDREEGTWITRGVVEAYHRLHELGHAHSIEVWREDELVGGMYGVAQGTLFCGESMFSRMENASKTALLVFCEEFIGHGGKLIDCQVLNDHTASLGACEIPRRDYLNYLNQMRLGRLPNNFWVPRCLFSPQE

Compound	Transfer to LysAlaAcm by AaT (in words) [1]	Ligated Product Yield (%) [1, 3]	further results
CC(C)C[C@H](N)C(=O)O[C@@H]1[C@H](O)[C@@H](CO)O[C@H]1n1cnc2c(N)ncnc21 [4b, (S)-(2R,3R,4R,5R)-2-(6-amino-9H-purin-9-yl)-4-hydroxy-5-(hydroxymethyl)tetrahydrofuran-3-yl 2-amino-4-methylpentanoate]	transferred efficiently	80.4 ± 0.9%	Ligated Product Yield (%) (V. vulnificus BpT): 5%
COc1ccc2c(C[C@H](N)C(=O)O[C@@H]3[C@H](O)[C@@H](CO)O[C@H]3n3cnc4c(N)ncnc43)cc(=O)oc2c1 [4h, (S)-(2R,3R,4R,5R)-2-(6-amino-9H-purin-9-yl)-4-hydroxy-5-(hydroxymethyl)tetrahydrofuran-3-yl 2-amino-3-(7-methoxy-2-oxo-2H-chromen-4-yl)propanoate]	too large	5h not observed	
Nc1ncnc2c1ncn2[C@@H]1O[C@H](CO)[C@@H](O)[C@H]1OC(=O)[C@@H](N)Cc1ccc2ccccc2c1 [4d, (S)-(2R,3R,4R,5R)-2-(6-amino-9H-purin-9-yl)-4-hydroxy-5-(hydroxymethyl)tetrahydrofuran-3-yl 2-amino-3-(naphthalen-2-yl)propanoate]		95.4 ± 0.4%	Ligated Product Yield (%) ([1]; single addition of donor, additive 100 μM PheLysAlaAcm): 93.8 ± 0.3%
CN[C@@H](Cc1ccccc1)C(=O)O[C@@H]1[C@H](O)[C@@H](CO)O[C@H]1n1cnc2c(N)ncnc21 [4e, (S)-(2R,3R,4R,5R)-2-(6-amino-9H-purin-9-yl)-4-hydroxy-5-(hydroxymethyl)tetrahydrofuran-3-yl 2-(methylamino)-3-phenylpropanoate]	transferred, albeit with low yield	0.6 ± 0.1%	
CC(C)SSC[C@H](N)C(=O)O[C@@H]1[C@H](O)[C@@H](CO)O[C@H]1n1cnc2c(N)ncnc21 [4l, (R)-(2R,3R,4R,5R)-2-(6-amino-9H-purin-9-yl)-4-hydroxy-5-(hydroxymethyl)tetrahydrofuran-3-yl 2-amino-3-(isopropyldisulfanyl)propanoate]		42.3%	Ligated Product Yield (%) (V. vulnificus BpT): 20%
[N-]=[N+]=N[C@@H](Cc1ccccc1)C(=O)O[C@@H]1[C@H](O)[C@@H](CO)O[C@H]1n1cnc2c(N)ncnc21 [4g, (S)-(2R,3R,4R,5R)-2-(6-amino-9H-purin-9-yl)-4-hydroxy-5-(hydroxymethyl)tetrahydrofuran-3-yl 2-azido-3-phenylpropanoate]	poor substrates	5g not observed^c	
CSSCC[C@H](N)C(=O)O[C@@H]1[C@H](O)[C@@H](CO)O[C@H]1n1cnc2c(N)ncnc21 [4n, (S)-(2R,3R,4R,5R)-2-(6-amino-9H-purin-9-yl)-4-hydroxy-5-(hydroxymethyl)tetrahydrofuran-3-yl 2-amino-4-(methyldisulfanyl)butanoate]		27.8%	
Nc1ncnc2c1ncn2[C@@H]1O[C@H](COP(=O)(O)OP(=O)(O)OP(=O)(O)O)[C@@H](O)[C@H]1O [ATP, adenosine triphosphate]			Inhibition of the reaction, comparison of adenosine compounds [2]: inhibited the reaction
Nc1ncnc2c1ncn2[C@@H]1O[C@H](CO)[C@@H](O)[C@H]1OC(=O)[C@@H](N)Cc1ccc(C(=O)c2ccccc2)cc1 [4i, (S)-(2R,3R,4R,5R)-2-(6-amino-9H-purin-9-yl)-4-hydroxy-5-(hydroxymethyl)tetrahydrofuran-3-yl 2-amino-3-(4-benzoylphenyl)propanoate]	poor substrate	9.2 ± 0.3%	
CSCC[C@H](N)C(=O)O[C@@H]1[C@H](O)[C@@H](CO)O[C@H]1n1cnc2c(N)ncnc21 [4j, (S)-(2R,3R,4R,5R)-2-(6-amino-9H-purin-9-yl)-4-hydroxy-5-(hydroxymethyl)tetrahydrofuran-3-yl 2-amino-4-(methylthio)butanoate]		21.9%	
CSSC[C@H](N)C(=O)O[C@@H]1[C@H](O)[C@@H](CO)O[C@H]1n1cnc2c(N)ncnc21 [4k, (R)-(2R,3R,4R,5R)-2-(6-amino-9H-purin-9-yl)-4-hydroxy-5-(hydroxymethyl)tetrahydrofuran-3-yl 2-amino-3-(methyldisulfanyl)propanoate]		20.1%	
CC(=O)N[C@@H](Cc1ccccc1)C(=O)O[C@@H]1[C@H](O)[C@@H](CO)O[C@H]1n1cnc2c(N)ncnc21 [4f, (S)-(2R,3R,4R,5R)-2-(6-amino-9H-purin-9-yl)-4-hydroxy-5-(hydroxymethyl)tetrahydrofuran-3-yl 2-acetamido-3-phenylpropanoate]	poor substrates	5f not observed	
PheLysAlaAcm			Product inhibition of NapLysAlaAcm (5d) production from Nap-A (4d) ([1]; 100 μM (1 equiv) added, standard 4 h transfer assay): did not significantly inhibit
